This note sets out measurements from patent US20230250393A1, “PRE-TREATING CARDIOMYOCYTES WITH ANTI-ARRHYTHMIC DRUGS TO REDUCE ENGRAFTMENT ARRHYTHMIA” (priority 2022, published 2023).

Like-named read-outs stand apart in the source and are kept apart here. Marks after values point to notes of the source that are not given here.

For data set [1], the system named is engraftment arrhythmia (EA). The conditions noted are these: for Effect on HR (heart rate) during EA / Effect: response on EA burden / Effect on rhythm: cardioversion / restoration of sinus rhythm: acute response, infarcted pigs with hESC-CM transplant in EA, dosages and routes as in Table 1; for Effect on EA heart rate and rhythm in the screen (overall): short-term intravenous infusion or oral treatment. An excerpt:
The objective of this study was to identify a pharmacological regimen to attenuate arrhythmias following cardiac remuscularization therapy. This study was designed in two phases: the first, to observe the natural history of EA and screen various antiarrhythmic agents for efficacy, and the second, to test for efficacy (FIG. 1). All subjects were 30-40 kg castrated male Yucatan minipigs between 6-13 months of age (S&S Farms). In Phase 1, nine subjects underwent cardiac remuscularization therapy with 500×10^6 hESC-CM delivered by direct surgical transepicardial injections or later, by percutaneous transendocardial injections. The first four subjects (one non-infarcted and three infarcted) were followed to learn the natural history of EA and establish clinical endpoints and parameters for the Phase 2 drug trial. The subsequent five subjects underwent systematic dosing with antiarrhythmic agents with continuous electrocardiography (ECG) monitoring to determine effect on rhythm and rate (Table 1).
(§1) Telemetric ECG was continuously monitored in real-time from the time of myocardial infarction to detect the primary endpoint of cardiac death or unstable EA. Automated quantification of heart rate and arrhythmia burden was performed offline by a board-certified cardiologist using the ecgAUTO™ 3.3.5.10 software package (EMKA Technologies). Arrhythmia was defined as an ectopic beat (e.g. premature ventricular contraction) or rhythm (e.g. idioventricular rhythm, ventricular tachycardia). […] Heart rate and arrhythmia burden were quantified for two continuous minutes every five minutes (40% of total rhythm was counted) and presented as daily averages.
Subjects were administered multiple trials antiarrhythmics and observed for acute response by continuous ECG monitoring. Intravenous agents were delivered as a bolus dose over 2 minutes. Oral agents were administrated by direct observation in a minimum of apples, apple sauce or pumpkin puree with daily feeding and dosed daily for dose escalation. A washout period of at least three days was provided between agents. Amiodarone was administered as the last agent for testing given concern for prolonged half-life and elimination kinetics. All agents were tested in at least two subjects.
In Phase 1 of the study, the inventors screened six canonical antiarrhythmic agents broadly targeting sodium channels, potassium channels, and beta-adrenergic receptors: lidocaine (Ib, sodium channel inhibitor), flecainide (Ic, sodium channel inhibitor), propafenone (Ic, sodium channel inhibitor), amiodarone (III, potassium channel inhibitor), sotalol (III, potassium channel inhibitor) and metoprolol (β1-adrenergic receptor inhibitor) for effect on EA heart rate and rhythm. In addition, the funny current/HCN4 channel antagonist, ivabradine, was tested (Table 1). This series were not meant to be definitive but rather to rapidly identify the candidate agents.

Data set [2] deals with engraftment arrhythmia (EA). The data set is classed as in vivo. As to conditions: chronic amiodarone. As for the experimental part:
as §1
Data are presented as mean±standard error of the mean (SEM).

Data set [3] can be described thus: Amiodarone drug monitoring by liquid chromatography-mass spectrometry. As to conditions: trough, within 1 week of discontinuation of chronic oral amiodarone, 6 pigs, mean ± SEM. In kind it is in vivo. On the procedure:
FIG. 8 Plasma amiodarone levels in pigs. Amiodarone levels were measured in plasma by a custom liquid chromatography-mass spectrometry assay. Chronic oral amiodarone in six pigs was discontinued after achieving electrical maturation and stabilization of engraftment arrythmia. Serum through concentrations of amiodarone were assayed weekly including 3-4 weeks after discontinuation.
A novel liquid chromatography—mass spectrometry assay was established for amiodarone to monitor steady state serum levels in the porcine model and guide oral dosing to ensure efficacy and avoid dose-related toxicity. A target serum level of 1.5-4.0 μg/ml was extrapolated from prior human pharmacokinetic studies (16,17). Elimination kinetics after discontinuation of oral amiodarone therapy were also studied by obtaining weekly trough concentrations in 6 pigs (subjects 6, 7, 8, 13, 14, 16) (FIG. 8).

In the case of `CCCCc1oc2ccccc2c1C(=O)c1cc(I)c(OCCN(CC)CC)c(I)c1` [Amiodarone, amiodarone], the “Effect on HR (heart rate) during EA” value in data set [1] is “Modest HR effect”. Further, the “Burden of EA, chronic treatment (in words)” value in data set [2] was “reduced the burden of EA chronically”. Also, the “Average serum amiodarone after discontinuation” value in data set [3] amounted to 0.42 ± 0.12 µg/mL.
Turning to `O=C(NCC1CCCCN1)c1cc(OCC(F)(F)F)ccc1OCC(F)(F)F` (stereo not shown) [Flecainide, flecainide], in data set [1], the “Effect on HR (heart rate) during EA” value was “No response on HR”; the “Effect: response on EA burden” value is “No response”; the “Effect on EA heart rate and rhythm in the screen (overall)” value (“Effect on EA heart rate and rhythm” for short) is “no significant effect”.
Take `COc1cc2c(cc1OC)CC(=O)N(CCCN(C)C[C@H]1Cc3cc(OC)c(OC)cc31)CC2` [Ivabradine, ivabradine]: the “Effect: response on EA burden” value in data set [1] is listed as “effect (PO only)**, no”. Also, in data set [1] (listed as ivabradine), the “Effect on HR (heart rate) during EA” value is “robust dose-dependent effects on heart rate” and the “Effect on rhythm: cardioversion / restoration of sinus rhythm” value was “did not restore sinus rhythm”. Further, the “Adverse effects observed in screening” value in data set [1] (minipig, in vivo) is “**Severe bradycardia”.
As for `CCN(CC)CC(=O)Nc1c(C)cccc1C` [Lidocaine, lidocaine], in data set [1], the “Effect on HR (heart rate) during EA” value is given as “Modest HR effect”; the “Effect on rhythm: cardioversion / restoration of sinus rhythm” value was “rare”; the “Effect on EA heart rate and rhythm” value is given as “no significant effect”.
Take `COCCc1ccc(OCC(O)CNC(C)C)cc1` (stereo not shown) [Metoprolol, metoprolol]: in data set [1], the “Effect on HR (heart rate) during EA” value was “Moderate HR effect (IV only),”; the “Effect: response on EA burden” value is given as “no response on EA burden”; the “Effect on EA heart rate and rhythm” value is given as “no significant effect”.
With `CC(C)NCC(O)c1ccc(NS(C)(=O)=O)cc1` (stereo not shown) [Sotalol, sotalol], in data set [1], the “Effect on HR (heart rate) during EA” value is “No response on HR”; the “Effect: response on EA burden” value is recorded as “No response”; the “Effect on EA heart rate and rhythm” value is given as “no significant effect”.
